Assay results from patent publication US20080281105A1, “Novel Quinolinium Salts and Derivatives” (IMMUSOL INCORPORATED, priority 2005, published 2008).

Columns and labels:
Caov-3 = assay: Cell growth in liquid culture (alamarBlue); conditions: Homo sapiens, Caov-3, 72 h, read-out: IC50 (uM) Liquid culture
CCD112/N = assay: Cell growth in liquid culture (alamarBlue); conditions: 72 h, read-out: IC50 (uM) Liquid culture
[1] = tested on: HCT116 colon cancer cells; conditions: HCT116 xenograft, I.p.
From the text: Female athymic nude (nu/nu) mice were inoculated with HCT116 colon cancer cells, and the tumors were allowed to grow to a volume of about 150 mm^3.

SW480 = assay: Cell growth in liquid culture (alamarBlue); conditions: Homo sapiens, SW480, 72 h, read-out: IC50 (uM) Liquid culture
HS578 = assay: Cell growth in liquid culture (alamarBlue); conditions: Hs578, 72 h, read-out: IC50 (uM) Liquid culture
IMR90 = assay: Cell growth in liquid culture (alamarBlue); conditions: Homo sapiens, IMR-90, 72 h, read-out: IC50 (uM) Liquid culture
A2780 [2] = assay: Cell growth in soft agar culture (alamarBlue); conditions: Homo sapiens, A2780, 168 h, read-out: IC50 (uM) Soft agar
HT29 [3] = assay: Cell growth in liquid culture (alamarBlue); conditions: Homo sapiens, HT-29, 72 h, read-out: IC50 (uM) Liquid culture
HCT116-P53(−) = assay: Cell growth in liquid culture (alamarBlue); conditions: 72 h, read-out: IC50 (uM) Liquid culture
DU145 = assay: Cell growth in liquid culture (alamarBlue); conditions: Homo sapiens, DU-145, 72 h, read-out: IC50 (uM) Liquid culture
W138 = assay: Cell growth in liquid culture (alamarBlue); conditions: W138, 72 h, read-out: IC50 (uM) Liquid culture
HCT116 = assay: Cell growth in soft agar culture (alamarBlue); conditions: Homo sapiens, HCT-116, 168 h, read-out: IC50 (uM) Soft agar
T47D = assay: Cell growth in liquid culture (alamarBlue); conditions: Homo sapiens, 72 h, read-out: IC50 (uM) Liquid culture
UACC257 = assay: Cell growth in liquid culture (alamarBlue); conditions: Homo sapiens, UACC-257, 72 h, read-out: IC50 (uM) Liquid culture
SKBR3 [4] = assay: Cell growth in liquid culture (alamarBlue); conditions: Homo sapiens, SK-BR-3, 72 h, read-out: IC50 (uM) Liquid culture
SK-OV-3 = assay: Cell growth in soft agar culture (alamarBlue); conditions: Homo sapiens, SK-OV-3, 168 h, read-out: IC50 (uM) Soft agar
OVCAR-8 [5] = assay: Cell growth in soft agar culture (alamarBlue); conditions: Homo sapiens, OVCAR-8, 168 h, read-out: IC50 (uM) Soft agar
HT29 [6] = assay: Cell growth in soft agar culture (alamarBlue); conditions: Homo sapiens, HT-29, 168 h, read-out: IC50 (uM) Soft agar
A549 = assay: Cell growth in soft agar culture (alamarBlue); conditions: Homo sapiens, A549, 168 h, read-out: IC50 (uM) Soft agar
UACC62 [7] = assay: Cell growth in soft agar culture (alamarBlue); conditions: Homo sapiens, UACC-62, 168 h, read-out: IC50 (uM) Soft agar
PA-1 = assay: Cell growth in liquid culture (alamarBlue); conditions: Homo sapiens, PA-1, 72 h, read-out: IC50 (uM) Liquid culture
SKBR3 [8] = assay: Cell growth in soft agar culture (alamarBlue); conditions: Homo sapiens, SK-BR-3, 168 h, read-out: IC50 (uM) Soft agar
DLD1 = assay: Cell growth in liquid culture (alamarBlue); conditions: Homo sapiens, DLD-1, 72 h, read-out: IC50 (uM) Liquid culture
OVCAR-4 = assay: Cell growth in liquid culture (alamarBlue); conditions: Homo sapiens, OVCAR-4, 72 h, read-out: IC50 (uM) Liquid culture
PC3 = assay: Cell growth in liquid culture (alamarBlue); conditions: Homo sapiens, PC-3, 72 h, read-out: IC50 (uM) Liquid culture
A2780 [9] = assay: Cell growth in liquid culture (alamarBlue); conditions: Homo sapiens, A2780, 72 h, read-out: IC50 (uM) Liquid culture
NCI-H460 = assay: Cell growth in liquid culture (alamarBlue); conditions: Homo sapiens, NCI-H460, 72 h, read-out: IC50 (uM) Liquid culture
Pc3M/N = assay: Cell growth in soft agar culture (alamarBlue); conditions: Homo sapiens, PC-3M, 168 h, read-out: IC50 (uM) Soft agar
OVCAR-8 [10] = assay: Cell growth in liquid culture (alamarBlue); conditions: Homo sapiens, OVCAR-8, 72 h, read-out: IC50 (uM) Liquid culture
UACC62 [11] = assay: Cell growth in liquid culture (alamarBlue); conditions: Homo sapiens, UACC-62, 72 h, read-out: IC50 (uM) Liquid culture

## Cc1cc(/C=C/c2ccc3cc(N(C)C)ccc3[n+]2C)c(C)n1-c1ccccc1 [Example 1, Pyrvinium Phosphate]
Caov-3
  IC50: 0.03 to 0.1 µM
CCD112/N
  IC50: ~1 µM
[1]
  Result: Tumor reduction: Tumor reduction (25%)
SW480
  IC50: 0.3 to 1 µM
HS578
  IC50: 0.1 to 0.3 µM
IMR90
  IC50: 0.1 to 0.3 µM
A2780 [2]
  IC50: 0.03 to 0.1 µM
HT29 [3]
  IC50: > 1 µM
HCT116-P53(−)
  IC50: > 1 µM
DU145
  IC50: > 1 µM
W138
  IC50: 0.1 to 0.3 µM
HCT116
  IC50: 0.1 to 0.3 µM
T47D
  IC50: ~0.03 µM
UACC257
  IC50: ~0.1 µM
SKBR3 [4]
  IC50: ~1 µM
SK-OV-3
  IC50: 0.03 to 0.1 µM
OVCAR-8 [5]
  IC50: 0.03 to 0.1 µM
HT29 [6]
  IC50: 0.03 to 0.1 µM
A549
  IC50: 0.033 to 0.1 µM
UACC62 [7]
  IC50: 0.03 to 0.1 µM
PA-1
  IC50: 0.03 to 0.1 µM
SKBR3 [8]
  IC50: ~1 µM
DLD1
  IC50: 0.3 to 1 µM
OVCAR-4
  IC50: 0.1 to 0.3 µM
PC3
  IC50: 0.1 to 0.3 µM
A2780 [9]
  IC50: 0.03 to 0.1 µM
NCI-H460
  IC50: 0.1 to 0.33 µM
Pc3M/N
  IC50: ~0.3 µM
OVCAR-8 [10]
  IC50: 0.1 to 0.3 µM
UACC62 [11]
  IC50: 0.1 to 0.3 µM
